Test results taken from ChEMBL document CHEMBL1201862, “PubChem BioAssay data set” (2004).
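Cells were grown in 96-well plates and exposed to each compound for 48 hours at five concentrations; endpoints were interpolated linearly between bracketing concentrations, or set to the highest concentration if not reached. Abbreviation: GI50, concentration required for 50% inhibition of growth.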 Activity calls are given as the source filed them. No stated cut-off is given here; in the data, active = GI50 up to about 1.1 µM and inactive = higher.

Tests used:
Assay in all cases: growth of human tumour cells (NCI), 48 h
[1] = system: MOLT-4
[2] = system: UACC-257
[3] = system: KM-20L2
[4] = system: KM12
[5] = system: U-251
[6] = system: RPMI-8226
[7] = system: 786-0
[8] = system: NCI-H23
[9] = system: HOP-62
[10] = system: SNB-75
[11] = system: COLO 205
[12] = system: SK-MEL-28
[13] = system: SK-MEL-5
[14] = system: ACHN
[15] = system: LOX IMVI
[16] = system: DLD-1
[17] = system: DMS-114
[18] = system: M19-MEL
[19] = system: TK-10
[20] = system: IGROV-1
[21] = system: SK-OV-3
[22] = system: Malme-3M
[23] = system: HL-60
[24] = system: SW-620
[25] = system: SF-268
[26] = system: K562
[27] = system: UACC-62
[28] = system: EKVX
[29] = system: OVCAR-5
[30] = system: CCRF-CEM
[31] = system: SN12C
[32] = system: HCT-116
[33] = system: SF-295
[34] = system: HT-29
[35] = system: UO-31
[36] = system: HCC 2998
[37] = system: CAKI-1
[38] = system: SF-539
[39] = system: LXFL 529
[40] = system: NCI-H522
[41] = system: OVCAR-3
[42] = system: SNB-19
[43] = system: OVCAR-8
[44] = system: OVCAR-4
[45] = system: NCI-H226
[46] = system: M14
[47] = system: A498
[48] = system: A549
[49] = system: HOP-18
[50] = system: HOP-92
[51] = system: RXF 393
[52] = system: HCT-15
[53] = system: DMS-273
[54] = system: SR
[55] = system: SNB-78
[56] = system: NCI-H460

Compound: COc1nc(NC2OC(COC(C)=O)C(OC(C)=O)C(OC(C)=O)C2OC(C)=O)c(/N=C/C=N/c2c(NC3OC(COC(C)=O)C(OC(C)=O)C(OC(C)=O)C3OC(C)=O)nc(OC)[nH]c2=O)c(=O)[nH]1 (stereo not drawn)
- GI50 [1]: > 100 µM (inactive)
- GI50 [2]: > 100 µM (inactive)
- GI50 [3]: > 100 µM (inactive)
- GI50 [4]: > 100 µM (inactive)
- GI50 [5]: > 100 µM (inactive)
- GI50 [6]: > 100 µM (inactive)
- GI50 [7]: > 100 µM (inactive)
- GI50 [8]: > 100 µM (inactive)
- GI50 [9]: > 100 µM (inactive)
- GI50 [10]: > 100 µM (inactive)
- GI50 [11]: > 100 µM (inactive)
- GI50 [12]: > 100 µM (inactive)
- GI50 [13]: > 100 µM (inactive)
- GI50 [14]: > 100 µM (inactive)
- GI50 [15]: > 100 µM (inactive)
- GI50 [16]: > 100 µM (inactive)
- GI50 [17]: > 100 µM (inactive)
- GI50 [18]: > 100 µM (inactive)
- GI50 [19]: > 100 µM (inactive)
- GI50 [20]: > 100 µM (inactive)
- GI50 [21]: > 100 µM (inactive)
- GI50 [22]: > 100 µM (inactive)
- GI50 [23]: > 100 µM (inactive)
- GI50 [24]: > 100 µM (inactive)
- GI50 [25]: > 100 µM (inactive)
- GI50 [26]: > 100 µM (inactive)
- GI50 [27]: > 100 µM (inactive)
- GI50 [28]: > 100 µM (inactive)
- GI50 [29]: > 100 µM (inactive)
- GI50 [30]: > 100 µM (inactive)
- GI50 [31]: > 100 µM (inactive)
- GI50 [32]: > 100 µM (inactive)
- GI50 [33]: > 100 µM (inactive)
- GI50 [34]: > 100 µM (inactive)
- GI50 [35]: > 100 µM (inactive)
- GI50 [36]: > 100 µM (inactive)
- GI50 [37]: > 100 µM (inactive)
- GI50 [38]: > 100 µM (inactive)
- GI50 [39]: > 100 µM (inactive)
- GI50 [40]: > 100 µM (inactive)
- GI50 [41]: > 100 µM (inactive)
- GI50 [42]: > 100 µM (inactive)
- GI50 [43]: > 100 µM (inactive)
- GI50 [44]: > 100 µM (inactive)
- GI50 [45]: > 100 µM (inactive)
- GI50 [46]: > 100 µM (inactive)
- GI50 [47]: > 100 µM (inactive)
- GI50 [48]: > 100 µM (inactive)
- GI50 [49]: > 100 µM (inactive)
- GI50 [50]: > 100 µM (inactive)

Compound: CCCCc1c2c(nc3c1CCc1cc4cc5c(nc4nc1-3)-c1nc3c(c(CCCC)c1CC5)CCC/C3=C\c1ccccc1)/C(=C/c1ccccc1)CCC2
- GI50 [1]: > 100 µM (inactive)
- GI50 [2]: > 100 µM (inactive)
- GI50 [3]: > 100 µM (inactive)
- GI50 [4]: > 100 µM (inactive)
- GI50 [5]: > 100 µM (inactive)
- GI50 [6]: > 100 µM (inactive)
- GI50 [7]: > 100 µM (inactive)
- GI50 [8]: > 100 µM (inactive)
- GI50 [9]: > 100 µM (inactive)
- GI50 [10]: > 100 µM (inactive)
- GI50 [11]: > 100 µM (inactive)
- GI50 [12]: > 100 µM (inactive)
- GI50 [51]: > 100 µM (inactive)
- GI50 [52]: > 100 µM
- GI50 [14]: > 100 µM (inactive)
- GI50 [15]: > 100 µM (inactive)
- GI50 [16]: > 100 µM (inactive)
- GI50 [17]: > 100 µM (inactive)
- GI50 [19]: > 100 µM (inactive)
- GI50 [20]: > 100 µM (inactive)
- GI50 [21]: > 100 µM (inactive)
- GI50 [22]: > 100 µM (inactive)
- GI50 [23]: > 100 µM (inactive)
- GI50 [24]: > 100 µM (inactive)
- GI50 [25]: > 100 µM (inactive)
- GI50 [26]: > 100 µM (inactive)
- GI50 [27]: > 100 µM (inactive)
- GI50 [28]: > 100 µM (inactive)
- GI50 [30]: > 100 µM (inactive)
- GI50 [31]: > 100 µM (inactive)
- GI50 [32]: > 100 µM (inactive)
- GI50 [33]: > 100 µM (inactive)
- GI50 [53]: > 100 µM (inactive)
- GI50 [34]: > 100 µM (inactive)
- GI50 [35]: > 100 µM (inactive)
- GI50 [36]: > 100 µM (inactive)
- GI50 [38]: > 100 µM (inactive)
- GI50 [54]: > 100 µM (inactive)
- GI50 [39]: > 100 µM (inactive)
- GI50 [55]: > 100 µM (inactive)
- GI50 [40]: > 100 µM (inactive)
- GI50 [41]: > 100 µM (inactive)
- GI50 [42]: > 100 µM (inactive)
- GI50 [43]: > 100 µM (inactive)
- GI50 [45]: > 100 µM (inactive)
- GI50 [46]: > 100 µM (inactive)
- GI50 [56]: > 100 µM (inactive)
- GI50 [48]: > 100 µM (inactive)
